Source: ChEMBL document CHEMBL1201862, “PubChem BioAssay data set” (2004)
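How tested: cells in 96-well plates exposed to compound for 48 hours at five concentrations. GI50 marks 50% less growth.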 Calls of active or inactive are those of the source. Cut-off read from the data, not from the text of the source: active = GI50 up to about 1.1 µM and inactive = higher.

Legend:
Experiment in all cases: NCI-60 cell line screen, 48 h
HT-29 = system: HT-29
SW-620 = system: SW-620
MDA-MB-231 = system: MDA-MB-231
K562 = system: K562
UACC-62 = system: UACC-62
HCC 2998 = system: HCC 2998
NCI-H460 = system: NCI-H460
Hs-578T = system: Hs-578T
NCI-H226 = system: NCI-H226
IGROV-1 = system: IGROV-1
MOLT-4 = system: MOLT-4
SK-MEL-2 = system: SK-MEL-2
MDA-MB-435 = system: MDA-MB-435
SR = system: SR
786-0 = system: 786-0
LOX IMVI = system: LOX IMVI
NCI-H23 = system: NCI-H23
RXF 393 = system: RXF 393

| SMILES | GI50 (HT-29) | GI50 (SW-620) | GI50 (MDA-MB-231) | GI50 (K562) | GI50 (UACC-62) | GI50 (HCC 2998) | GI50 (NCI-H460) | GI50 (Hs-578T) | GI50 (NCI-H226) | GI50 (IGROV-1) | GI50 (MOLT-4) | GI50 (SK-MEL-2) | GI50 (MDA-MB-435) | GI50 (SR) | GI50 (786-0) | GI50 (LOX IMVI) | GI50 (NCI-H23) | GI50 (RXF 393) |
| --- | --- | --- | --- | --- | --- | --- | --- | --- | --- | --- | --- | --- | --- | --- | --- | --- | --- | --- |
| CC1(C)CCC(=O)NC1CC(=O)CC1NC(=O)CCC1(C)C (stereo unspecified) | > 100 µM (inactive) | > 100 µM (inactive) | > 100 µM (inactive) | > 100 µM (inactive) | > 100 µM (inactive) | > 100 µM (inactive) | > 100 µM (inactive) | > 100 µM (inactive) | > 100 µM (inactive) | > 100 µM (inactive) | > 100 µM (inactive) | > 100 µM (inactive) | > 100 µM (inactive) | 7.08 µM (inactive) | > 100 µM (inactive) | > 100 µM (inactive) | > 100 µM (inactive) | > 100 µM (inactive) |
| COc1ccc(-c2cn3c(n2)sc2cc(C)ccc23)cc1 | 5.96 µM (inactive) | 25.8 µM (inactive) | 15.5 µM (inactive) | 3.64 µM (inactive) | 12.3 µM (inactive) | 12.5 µM (inactive) | 20.7 µM (inactive) | 18.2 µM (inactive) | 15.2 µM (inactive) | 7.19 µM (inactive) | 17.5 µM (inactive) | 14.3 µM (inactive) | 5.28 µM (inactive) | 4.86 µM (inactive) | 18.3 µM (inactive) | 17.5 µM (inactive) | 9.29 µM (inactive) | 16.6 µM (inactive) |
| CC(C)OC(=O)[C@@H]1OC(C)(C)O[C@H]1C(=O)OC(C)C | > 100 µM (inactive) | > 100 µM (inactive) | > 100 µM (inactive) | > 100 µM (inactive) | > 100 µM (inactive) | > 100 µM (inactive) | > 100 µM (inactive) | > 100 µM (inactive) | > 100 µM (inactive) | > 100 µM (inactive) | > 100 µM (inactive) | > 100 µM (inactive) | > 100 µM (inactive) | > 100 µM (inactive) | > 100 µM (inactive) | > 100 µM (inactive) | > 100 µM (inactive) | > 100 µM (inactive) |
| O=C1/C(=N/O)Cc2c(Br)ccc(Br)c21 | > 100 µM (inactive) | 63.5 µM (inactive) | 46.9 µM (inactive) | 26 µM (inactive) | – | 24.2 µM (inactive) | 37.6 µM (inactive) | 37.8 µM (inactive) | 68.1 µM (inactive) | 40 µM (inactive) | 25.4 µM (inactive) | 17.9 µM (inactive) | 39.6 µM (inactive) | 28.4 µM (inactive) | 74 µM (inactive) | 31.9 µM (inactive) | 58.7 µM (inactive) | 99.3 µM (inactive) |
| COc1ccc(C2c3cc4c(cc3OC(N3CCOCC3)C2C)OCO4)c(OC)c1 (stereo unspecified) | 3.48 µM (inactive) | 3.72 µM (inactive) | 8.69 µM (inactive) | 3.02 µM (inactive) | 5.56 µM (inactive) | 4.17 µM (inactive) | 5.12 µM (inactive) | 1.97 µM (inactive) | 3.72 µM (inactive) | 7.59 µM (inactive) | 3.58 µM (inactive) | 4.95 µM (inactive) | 2.14 µM (inactive) | 4.21 µM (inactive) | 4.63 µM (inactive) | 4.27 µM (inactive) | 11.9 µM (inactive) | 2.94 µM (inactive) |
| C=C(Cl)C(Cl)(CBr)CCCC(C)(C)Cl (stereo unspecified) | 1.97 µM (inactive) | 20.4 µM (inactive) | > 38.6 µM (inactive) | > 42 µM (inactive) | 17.4 µM (inactive) | 15.9 µM (inactive) | 5.71 µM (inactive) | 2.98 µM (inactive) | > 72.9 µM (inactive) | 33.3 µM (inactive) | > 55.6 µM (inactive) | 11.4 µM (inactive) | 27.2 µM (inactive) | > 53 µM (inactive) | 5.04 µM (inactive) | 11.9 µM (inactive) | 45 µM (inactive) | 17.7 µM (inactive) |
| O=Cc1[nH]c(=O)[nH]c(=O)c1CCl | > 88.9 µM (inactive) | 38.7 µM (inactive) | > 100 µM (inactive) | 50.8 µM (inactive) | > 96.4 µM (inactive) | > 100 µM (inactive) | > 55.8 µM (inactive) | > 100 µM (inactive) | > 100 µM (inactive) | > 100 µM (inactive) | > 96.8 µM (inactive) | > 90.2 µM (inactive) | > 100 µM (inactive) | 30.6 µM (inactive) | 74.8 µM (inactive) | 30 µM (inactive) | > 100 µM (inactive) | 71.6 µM (inactive) |
| CCN(CC)CCN1CCN=c2c3cc(OC)ccc3n3cnc4ccc1c2c43 | 0.0859 µM (active) | 0.0456 µM (active) | 0.483 µM (active) | 0.2 µM (active) | 1.71 µM (inactive) | 0.585 µM (active) | 0.199 µM (active) | 1.63 µM (inactive) | 1.54 µM (inactive) | 0.357 µM (active) | 0.0385 µM (active) | 0.587 µM (active) | 0.522 µM (active) | 0.174 µM (active) | 0.272 µM (active) | 0.311 µM (active) | 0.713 µM (active) | 0.292 µM (active) |
| COCCOCCOC1=CC(=O)c2c(O)ccc(O)c2C1=O | 0.518 µM (active) | 0.571 µM (active) | 1.49 µM (inactive) | 0.671 µM (active) | 1.45 µM (inactive) | 1.82 µM (inactive) | 1.91 µM (inactive) | 2.47 µM (inactive) | 2.3 µM (inactive) | 1.82 µM (inactive) | 2.04 µM (inactive) | 1.84 µM (inactive) | 0.0278 µM (active) | 1.19 µM (inactive) | 1.8 µM (inactive) | 1.52 µM (inactive) | 1.69 µM (inactive) | 2.07 µM (inactive) |
| CC1C(O)Oc2cc3c(cc2C1c1ccccc1O)OCO3 (stereo unspecified) | 23.3 µM (inactive) | 39.1 µM (inactive) | 34.6 µM (inactive) | 17.6 µM (inactive) | 29.5 µM (inactive) | 38.5 µM (inactive) | 23.4 µM (inactive) | 11.5 µM (inactive) | 18.6 µM (inactive) | 28 µM (inactive) | 19.3 µM (inactive) | 25.9 µM (inactive) | 29.9 µM (inactive) | 4.65 µM (inactive) | 39.4 µM (inactive) | 31.6 µM (inactive) | 46.1 µM (inactive) | 14.3 µM (inactive) |
| O=C(/C=C/c1ccc(O)c(O)c1)NC(COC(=O)/C=C/c1ccc(O)c(O)c1)C(=O)O (stereo unspecified) | > 100 µM (inactive) | > 100 µM (inactive) | > 100 µM (inactive) | > 100 µM (inactive) | > 100 µM (inactive) | > 100 µM (inactive) | > 100 µM (inactive) | > 100 µM (inactive) | > 100 µM (inactive) | > 100 µM (inactive) | > 100 µM (inactive) | > 100 µM (inactive) | > 100 µM (inactive) | > 100 µM (inactive) | > 100 µM (inactive) | > 100 µM (inactive) | > 100 µM (inactive) | > 100 µM (inactive) |
| CC1(C)CCCCCC(C)(CCCCCCCCCCCO)C1=O (stereo unspecified) | 11.9 µM (inactive) | 18.4 µM (inactive) | 16.3 µM (inactive) | 15.3 µM (inactive) | 15.5 µM (inactive) | 24.3 µM (inactive) | 17.1 µM (inactive) | 16.3 µM (inactive) | 17.1 µM (inactive) | 18.2 µM (inactive) | 19.5 µM (inactive) | 16.2 µM (inactive) | 16.6 µM (inactive) | 1.41 µM (inactive) | 16.2 µM (inactive) | 15.4 µM (inactive) | 16.6 µM (inactive) | 16.9 µM (inactive) |
| Cc1nc2c(nc1C)-c1c(c3c(n1C)C(=O)CCC3)C(=O)C2=O | 1.98 µM (inactive) | 0.214 µM (active) | 0.264 µM (active) | 0.338 µM (active) | 0.406 µM (active) | 1.61 µM (inactive) | 1.23 µM (inactive) | 1.42 µM (inactive) | 1.41 µM (inactive) | 0.337 µM (active) | 0.312 µM (active) | 0.571 µM (active) | 0.174 µM (active) | 0.175 µM (active) | 1.39 µM (inactive) | 0.186 µM (active) | 0.743 µM (active) | 0.16 µM (active) |
| Oc1ccccc1/C=N/c1nc2cc3sc(/N=C/c4ccccc4O)nc3cc2s1 | 26.2 µM (inactive) | 20.7 µM (inactive) | > 100 µM (inactive) | 67.3 µM (inactive) | > 100 µM (inactive) | > 100 µM (inactive) | 4.61 µM (inactive) | 21.5 µM (inactive) | 26.4 µM (inactive) | 60 µM (inactive) | 0.889 µM (active) | > 100 µM (inactive) | > 95.9 µM (inactive) | 2.63 µM (inactive) | > 81.1 µM (inactive) | 34.2 µM (inactive) | 6.21 µM (inactive) | > 32.7 µM (inactive) |
| CC1(CNCc2ccccc2)CC(CCc2ccccc2)N(C(=O)c2ccc([N+](=O)[O-])cc2)C1Cc1ccc(O)cc1 (stereo unspecified) | 5.65 µM (inactive) | 21.5 µM (inactive) | 10.3 µM (inactive) | 33.7 µM (inactive) | 13.1 µM (inactive) | 13.1 µM (inactive) | 14 µM (inactive) | 13.5 µM (inactive) | 9.93 µM (inactive) | 15 µM (inactive) | 13.2 µM (inactive) | 13.6 µM (inactive) | 14.2 µM (inactive) | 6.75 µM (inactive) | 11.8 µM (inactive) | 12.6 µM (inactive) | 10.3 µM (inactive) | 5.04 µM (inactive) |
| CCOC(=O)c1sc(N/N=C2\NC(=O)/C(=C/c3ccc([N+](=O)[O-])cc3)S2)nc1C | 25.2 µM (inactive) | 31.8 µM (inactive) | 19.5 µM (inactive) | – | 22.2 µM (inactive) | 27.4 µM (inactive) | 21.5 µM (inactive) | 33.9 µM (inactive) | 18.7 µM (inactive) | 14 µM (inactive) | 10.3 µM (inactive) | 24.8 µM (inactive) | 23.8 µM (inactive) | 6.65 µM (inactive) | 16.7 µM (inactive) | 19.8 µM (inactive) | 24.4 µM (inactive) | 26.8 µM (inactive) |
